Each structure is given as a SMILES string. Some results are limits rather than exact numbers.

One assay concerns normal mice. Kind of assay: Spontaneous locomotor activity after oral administration to normal mice (SCANET apparatus). The assay is classed as in vivo, C57BL/6 mice (male). The note with it: p.o. The method, then:
The enhancing effects of compound (IX) on the spontaneous locomotor activity were examined in normal mice.
Compound (IX) was orally administrated to C57BL/6 mice (male) and the spontaneous locomotor activity was measured with a locomotor activity measuring apparatus (SCANET, TOYO sangyo). Mice were familiarized to the cage of the apparatus for at least 60 min. Compound (IX) (1,3,10 mg/kg) or vehicle (vehicle, distilled water Otsuka) was administrated orally. The spontaneous locomotor activity was measured for 5 hours after the mice were returned to the cage.

A further assay relates to 6-OHDA-treated mice. Kind of assay: Spontaneous locomotor activity in mice injected intracerebroventricularly with 6-OHDA (Parkinson's disease model). The assay is classed as in vivo, C57BL/6 mice (male). The note with it: 6-OHDA mice. As for the experimental part: Mice injected intracerebroventricularly with a monoaminergic toxin, 6-OHDA were used as a model for Parkinson's disease.
To C57BL/6 mice (male) were administrated desipramine (desipramine (25 mg/kg, i.p., 0.5%), lactic acid) and 6-OHDA (40 μg/μl/mouse, 0.2% ascorbic acid) was injected in the cerebroventricule after 30 min. The mice were placed in the locomotor activity measuring apparatus after one day. Compound (IX) (0.3, 1 mg/kg), with or without L-DOPA (10 mg/kg, i.p., dissolved in 0.1N HCl and diluted with distilled water or injection, Otsuka Pharmaceutical), was administrated after 90 min, then the spontaneous locomotor activity was measured for 5 hours. When L-DOPA was administrated, mice were pre-treated with carbidopa (25 mg/kg, i.p., 0.5% lactic acid) before 30 min.

Assay [1] has as its system reserpine-induced cataleptic posture. Briefly: Catalepsy test in mice pre-treated with reserpine. The assay is classed as in vivo, ddy mice (male). The note with it: 1 hour after administration. As for the experimental part: The effects of compound (IX) in single administration and in combination with L-DOPA on cataleptic responses were examined in mice pre-treated with a monoamine-depleting drug, reserpine. Reserpine (5 mg/kg, i.p., Apoplon Inj, Daiichi Pharmaceutical) was administrated to ddy mice (male). On the next day, compound (IX) (0.3, 1, 3 mg/kg, p.o.) with or without L-DOPA (25, 100 mg/kg, i.p., dissolved in 0.1N HCl and diluted with distilled water for injection (Otsuka Pharmaceutical)) was administrated to the mice and catalepsy test was performed after 1 hour. When L-DOPA was administrated, mice were pre-treated with carbidopa (25 mg/kg, i.p., 0.5% lactic acid) before 30 min. The forelimbs or hindlimbs of each mouse were placed on a 4.5 cm high horizontal bar and the time was measured (cut off time 30 sec) until both legs reach the floor. The cataleptic responses were scored as follows (less than 5 sec.: 0 point, 5 sec. to less than 10 sec.: 1 point, 10 sec to less than 15 sec.: 2 points, 15 sec. to than 20 sec.: 3 points, 20 sec. to less than 25 sec.: 4 points, 25 sec. to less than 30 sec.: 5 points, 30 sec. or more: 6 points). For forelimbs, the scores for 3 repetitive tests were summated. For hindlimbs, the tests were performed 5 times and of which 3 scores were summated excluding the highest and lowest scores. The catalepsy scores were calculated as the total scores for forelimbs and hindlimbs.

A further assay concerns MPTP-treated mice. Briefly: Spontaneous locomotor activity in MPTP-treated mice (Parkinson's disease model). Type of assay: in vivo, C57BL/6 mice (male). The note with it: MPTP 40 mg/kg x 2 mice, compound (IX) alone 3 mg/kg p.o., P < 0.05 vs MPTP-treated control group. The method, then: Mice injected with a dopaminergic toxin, MPTP were used as a model for Parkinson's disease and the effects of single administration of compound (IX) on the reduction of the spontaneous locomotor activity caused by MPTP-treatment were examined.
MPTP (40 mg/kg, i.p., saline) was injected twice at 24-hr intervals to C57BL/6 mice (male), and the day after the last administration, the mice were placed in locomotor activity measuring apparatus. After 30 min, compound (IX) alone (0.3, 1, 3 mg/kg, p.o.) was administered.

Regarding `C[C@@H]1OC(=O)N[C@@H]1C(=O)NC(Cc1cscn1)C(=O)N1CCC[C@H]1C` (stereo in doubt) [Compound (IX)], in the assay on normal mice, the “dose at which the spontaneous locomotor activity was increased” value is reported as not below 3 mg/kg. Also, the “spontaneous locomotor activity, Total” value in the assay with 6-OHDA-treated mice (compound (IX) 1 mg/kg p.o. in combination with L-DOPA 10 mg/kg i.p. (carbidopa pre-treatment), 5 hours, P < 0.01 vs 6-OHDA-treated group) is 14468 ± 3618; with 6-OHDA-treated mice (compound (IX) 1 mg/kg p.o. in combination with L-DOPA 10 mg/kg i.p. (carbidopa pre-treatment), 5 hours, P < 0.01 vs 6-OHDA-treated group, listed as compound (IX)), “significant and remarkable increase”; in the assay with 6-OHDA-treated mice (compound (IX) 1 mg/kg p.o. in single administration, measured for 5 hours, 1 mg/kg), 2512 ± 333; in the assay with 6-OHDA-treated mice (compound (IX) 1 mg/kg p.o. in single administration, measured for 5 hours, listed as compound (IX), 1 mg/kg), “did not show significant increase”; with MPTP-treated mice, 5463 ± 700; in the assay with MPTP-treated mice (listed as compound (IX)), “significantly increased”. Further, the “catalepsy score, mean” value in assay [1] (compound (IX) 1 mg/kg p.o. + L-DOPA 100 mg/kg i.p.) is recorded as 2.3; in assay [1] (compound (IX) 1 mg/kg p.o. + L-DOPA 100 mg/kg i.p., listed as compound (IX)) it was “significant depression effect”; in assay [1] (compound (IX) 3 mg/kg p.o. + L-DOPA 100 mg/kg i.p.) it was 9.2; in assay [1] (compound (IX) 3 mg/kg p.o. + L-DOPA 100 mg/kg i.p., listed as compound (IX)), “significant depression effect”.

Source of the values: patent publication US20030191120A1, “Antiparkinsonism drugs” (priority 2000, published 2003).
